Measurements from ChEMBL document CHEMBL1201862, “PubChem BioAssay data set” (2004).
Active and inactive are the calls of the source.

What was measured:
[1] = target: T1, Neuropeptide Y receptor type 1 (Homo sapiens, UniProt P25929); test: IC50 of human NPY-Y1 blockers – cell-based, dose response (AID 1277); assay type: functional
T1 sequence (P25929 whole entry): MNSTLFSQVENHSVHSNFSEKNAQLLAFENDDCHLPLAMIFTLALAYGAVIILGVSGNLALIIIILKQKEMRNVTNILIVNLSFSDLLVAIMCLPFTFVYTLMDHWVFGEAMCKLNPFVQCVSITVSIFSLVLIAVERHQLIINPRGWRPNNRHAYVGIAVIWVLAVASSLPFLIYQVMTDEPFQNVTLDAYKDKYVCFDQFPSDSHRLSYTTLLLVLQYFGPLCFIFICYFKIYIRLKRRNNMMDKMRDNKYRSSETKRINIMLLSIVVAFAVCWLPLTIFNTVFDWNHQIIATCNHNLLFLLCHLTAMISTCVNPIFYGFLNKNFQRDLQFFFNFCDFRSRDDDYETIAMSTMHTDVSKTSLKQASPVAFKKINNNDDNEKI

[2] = target: T2, Neuropeptide Y receptor type 2 (Homo sapiens, UniProt P49146); test: IC50 for human NPY-Y2 blockade – cell-based, counter-screen for NPY-Y1 antagonist project, dose response (AID 1278); assay type: functional
T2 sequence (P49146 whole entry): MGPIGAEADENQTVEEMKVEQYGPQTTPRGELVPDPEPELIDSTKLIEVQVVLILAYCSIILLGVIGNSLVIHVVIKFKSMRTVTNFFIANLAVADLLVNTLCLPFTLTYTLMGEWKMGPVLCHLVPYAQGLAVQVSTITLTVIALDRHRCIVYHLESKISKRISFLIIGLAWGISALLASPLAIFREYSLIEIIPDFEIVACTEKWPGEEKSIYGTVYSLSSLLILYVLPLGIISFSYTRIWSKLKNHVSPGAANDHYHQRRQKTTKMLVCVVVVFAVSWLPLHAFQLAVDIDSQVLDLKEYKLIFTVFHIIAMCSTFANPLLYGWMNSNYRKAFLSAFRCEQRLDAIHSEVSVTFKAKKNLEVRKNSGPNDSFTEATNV

CAAX prenyl protease 2 = target: T3, CAAX prenyl protease 2 (Saccharomyces cerevisiae S288c, UniProt Q03530); assay type: biochemical
T3 sequence (Q03530 whole entry): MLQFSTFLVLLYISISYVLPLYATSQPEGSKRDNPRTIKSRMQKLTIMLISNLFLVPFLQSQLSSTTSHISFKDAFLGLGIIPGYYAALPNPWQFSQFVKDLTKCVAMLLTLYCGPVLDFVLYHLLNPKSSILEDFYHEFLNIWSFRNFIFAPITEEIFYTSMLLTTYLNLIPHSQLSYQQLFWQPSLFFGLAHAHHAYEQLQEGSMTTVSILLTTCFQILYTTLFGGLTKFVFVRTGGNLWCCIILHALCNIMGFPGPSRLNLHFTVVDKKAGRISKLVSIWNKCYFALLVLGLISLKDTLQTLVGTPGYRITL

[3] = Luminescence Cell-Based Dose Retest to Confirm Inhibitors of Cancer Stem Cells. [Related pubchem assays (depositor defined):AID2717, AID2721]; assay type: functional; conditions: Homo sapiens
Trypsin = Trypsin (Sus scrofa, UniProt P00761); test: trypsin protease activity blockade – biochemical, quenched peptide fluorescence, cherry-pick, selectivity assay for Rce1 protease inhibitor project, dose response (AID 488789)
Chain of Trypsin (P00761 whole entry): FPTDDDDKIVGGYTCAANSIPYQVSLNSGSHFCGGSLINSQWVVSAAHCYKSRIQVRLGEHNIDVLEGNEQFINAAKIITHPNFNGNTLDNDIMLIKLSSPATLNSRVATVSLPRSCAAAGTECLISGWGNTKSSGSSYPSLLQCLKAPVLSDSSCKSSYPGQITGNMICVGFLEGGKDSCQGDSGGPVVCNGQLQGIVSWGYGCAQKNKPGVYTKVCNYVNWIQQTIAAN

[4] = target: Potassium voltage-gated channel subfamily KQT member 2 (Rattus norvegicus, UniProt O88943, W236L); test: potentiation of rat KCNQ2 current – cell-based, automated electrophysiology, mechanism study for KCNQ2 potentiator project, dose response (AID 2603); assay type: functional
Chain of Potassium voltage-gated channel subfamily KQT member 2 (O88943 whole entry W236L): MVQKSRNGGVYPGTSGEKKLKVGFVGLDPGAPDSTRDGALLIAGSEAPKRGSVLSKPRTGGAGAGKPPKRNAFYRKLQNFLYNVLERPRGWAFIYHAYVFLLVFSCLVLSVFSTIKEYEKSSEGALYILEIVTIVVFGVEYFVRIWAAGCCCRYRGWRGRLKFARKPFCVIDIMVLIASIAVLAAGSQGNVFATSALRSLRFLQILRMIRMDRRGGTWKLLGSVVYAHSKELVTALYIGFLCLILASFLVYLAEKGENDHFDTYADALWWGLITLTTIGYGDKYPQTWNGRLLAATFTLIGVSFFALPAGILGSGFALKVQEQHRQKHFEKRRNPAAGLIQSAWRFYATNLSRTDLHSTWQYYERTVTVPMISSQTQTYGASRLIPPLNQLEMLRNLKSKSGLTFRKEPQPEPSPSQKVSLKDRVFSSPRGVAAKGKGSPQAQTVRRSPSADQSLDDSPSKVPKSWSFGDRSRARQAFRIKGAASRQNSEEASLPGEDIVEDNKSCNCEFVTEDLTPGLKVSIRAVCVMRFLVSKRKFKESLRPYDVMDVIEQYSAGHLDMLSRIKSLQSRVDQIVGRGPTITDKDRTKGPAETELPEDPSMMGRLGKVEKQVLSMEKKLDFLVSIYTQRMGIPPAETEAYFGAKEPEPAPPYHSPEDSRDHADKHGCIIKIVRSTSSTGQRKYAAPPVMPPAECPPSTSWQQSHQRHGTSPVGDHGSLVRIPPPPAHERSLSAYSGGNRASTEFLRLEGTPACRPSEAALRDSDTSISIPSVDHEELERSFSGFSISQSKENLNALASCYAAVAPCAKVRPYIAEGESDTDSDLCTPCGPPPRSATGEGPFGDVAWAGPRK

[5] = target: Glyceraldehyde-3-phosphate dehydrogenase (Homo sapiens, UniProt P04406)
Chain of Glyceraldehyde-3-phosphate dehydrogenase (P04406 whole entry): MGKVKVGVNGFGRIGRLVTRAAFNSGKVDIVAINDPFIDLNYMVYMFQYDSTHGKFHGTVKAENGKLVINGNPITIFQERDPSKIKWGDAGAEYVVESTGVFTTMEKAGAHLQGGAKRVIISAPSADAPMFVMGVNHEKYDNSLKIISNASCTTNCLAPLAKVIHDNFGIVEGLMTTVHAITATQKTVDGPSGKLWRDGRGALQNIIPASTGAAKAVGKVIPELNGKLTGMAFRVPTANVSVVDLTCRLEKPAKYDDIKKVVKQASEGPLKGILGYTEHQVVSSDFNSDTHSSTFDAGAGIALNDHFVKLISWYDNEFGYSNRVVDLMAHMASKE

CCCCC(O)(CCCC)C(=O)NN(C(=O)OC)c1ccccc1
IC50 [1]: > 35 µM (not active) | IC50 [2]: > 35 µM (not active)

Cc1nc(N2CCCCC2)c2c(C)c(C(=O)Nc3ccccc3C(F)(F)F)sc2n1
AC50 (CAAX prenyl protease 2): 13.4 µM (active) | IC50 [1]: 7.1 µM (active) | AC50 [3]: 2.18 µM (active) | AC50 (Trypsin): > 100 µM (inactive) | IC50 [2]: 6.66 µM (active)

O=C(Nc1cccc(OC(F)(F)F)c1)c1ccc(Br)o1
EC50 [4]: 13.8 µM (active)

COc1cccc(N2C(=O)C(Cl)=C(N(C)C)C2=O)c1
IC50 [5]: > 50 µM (inconclusive)
